Test results as given in paper PMC10888103, “Enhanced High-Fructose Corn Syrup Production: Immobilizing Serratia marcescens Glucose Isomerase on MOF (Co)-525 Reduces Co^2+ Dependency in Glucose Isomerization to Fructose” (Foods, 2024).

System: T1, Serratia marcescens glucose isomerase (SmGI)
T1 construct: gene xylA; native, from S. marcescens lysate; 70 °C heat step and 10 kD ultrafiltration only (no chromatography); main SDS-PAGE band about 60 kD
Experiment: fructose formation by fructose assay kit, Lineweaver-Burk; heat-treated, ultrafiltered extract
Format: biochemical
Conditions: free enzyme, no added Co2+; 60 °C, 1 h; glucose 2.5-400 mM; pH of kinetic assay not stated
Source text: fructose formation by fructose assay kit, Lineweaver-Burk; heat-treated, ultrafiltered extract on Serratia marcescens glucose isomerase (SmGI)

OC[C@H]1OC(O)[C@H](O)[C@@H](O)[C@@H]1O (stereo partly shown) [glucose]
Km: 44.3 ± 3.1 mM
